pEC50: −log10 of the molar value.
Experiments:
GP2D (KRAS G12D) cells = experiment: 2D cell viability assay (CellTiter-Glo); format: cell-based; conditions: 96 h; GP2D cells, 4 days, CellTiter-Glo luminescence; read-out: G12D 2D EC50
In short: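 GP2D (KRAS G12D) cells, 1000/well in RPMI + 10% FBS, were plated onto compound (1:3 DMSO series) and grown 4 days at 37 °C, 5% CO2 in 2D. CellTiter-Glo luminescence was read; EC50 is the concentration giving 50% signal decrease, from sigmoidal fit.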

[1] = Rat oral pharmacokinetics; design: species or system Male Sprague Dawley rats; conditions: male, Sprague Dawley, in vivo
Protocol: Rat Oral Pharmacokinetics
Test compounds were formulated in solution formulations (10 w/v % Sulfobutylether-p-cyclodextrin; 90% w/v % 50 mM Citrate Buffer) and administered orally to a group of three Male Sprague Dawley rats. The animals were fasted overnight prior to dose administration and up to four hours after dosing. The test articles were administrated by oral gavage at a dose volume of 5 mL-eq/kg.
Blood samples were collected at predose and 0.25, 0.5, 1, 2, 4, 6, 8, 12, 24, 48 and 72 hours post dose into K2EDTA tubes and stored on wet ice until processed. Whole blood was processed to plasma by centrifugation (3500 rpm for 10 minutes at 5° C.) within 30 minutes of collection. Plasma samples were placed in Micronic 96 well tubes and stored at −80° C. until transferred. Plasma concentration of the test compounds was determined by LC-MS/MS. Pharmacokinetic parameters were estimated using non-compartment model analysis. The maximum observed concentration (Cmax) and area under the curve from time of dosing to last measured concentration (AUClast) were calculated and reported.

Compound | pEC50 (GP2D (KRAS G12D) cells) | Rat Parent % F ([1]; 7.5 mg/kg) [%] | Rat Parent AUC ([1]; 7.5 mg/kg) [µM·h] | Rat Parent % F ([1]; 5 mg/kg) [%] | Rat Parent AUC ([1]; 5 mg/kg) [µM·h] | Rat Parent % F ([1]; 15 mg/kg) [%] | Rat Parent AUC ([1]; 15 mg/kg) [µM·h]
C#Cc1c(F)ccc2cc(N)nc(-c3c(F)c4c5c(nc(OC[C@@]67CCCN6C[C@H](F)C7)nc5c3F)N3C[C@H]5CC[C@@H]([C@H]3CCC4)N5Cc3oc(=O)oc3C)c12 (atropisomer, axis not shown; (aR)) [Example 73, 4-(((1S,4R,11S,15aR)-11-(3-amino-8-ethynyl-7-fluoroisoquinolin-1-yl)-10,12-difluoro-8-(((2R,7aS)-2-fluorotetrahydro-1H-pyrrolizin-7a(5H)-yl)methoxy)-2,3,4,5,13,14,15,15a-octahydro-1H-1,4-epiminoazepino[1′,2′:1,8]azocino[2,3,4-de]quinazolin-16-yl)methyl)-5-methyl-1,3-dioxol-2-one] | 9.09 | 2 | 0.3 | – | – | – | –
CCc1c(F)ccc2cc(O)cc(-c3c(F)c4c5c(nc(OC[C@@]67CCCN6C[C@H](F)C7)nc5c3F)N3C[C@H]5CC[C@@H]([C@H]3CCC4)N5Cc3oc(=O)oc3C)c12 (atropisomer, axis not shown; (aR)) [Example 77, 4-(((1S,4R,11R,15aR)-11-(8-ethyl-7-fluoro-3-hydroxynaphthalen-1-yl)-10,12-difluoro-8-(((2R,7aS)-2-fluorotetrahydro-1H-pyrrolizin-7a(5H)-yl)methoxy)-2,3,4,5,13,14,15,15a-octahydro-1H-1,4-epiminoazepino[1′,2′:1,8]azocino[2,3,4-de]quinazolin-16-yl)methyl)-5-methyl-1,3-dioxol-2-one] | 9.59 | – | 0.43 | – | – | – | –
C#Cc1c(F)ccc2cc(N)nc(-c3c(F)c4c5c(nc(OC[C@@]67CCCN6C[C@H](F)C7)nc5c3F)N3C[C@H]5CC[C@@H]([C@H]3CCC4)N5Cc3oc(=O)oc3CC)c12 (atropisomer, axis not shown; (aR)) [Example 79, 4-(((1S,4R,11S,15aR)-11-(3-amino-8-ethynyl-7-fluoroisoquinolin-1-yl)-10,12-difluoro-8-(((2R,7aS)-2-fluorotetrahydro-1H-pyrrolizin-7a(5H)-yl)methoxy)-2,3,4,5,13,14,15,15a-octahydro-1H-1,4-epiminoazepino[1′,2′:1,8]azocino[2,3,4-de]quinazolin-16-yl)methyl)-5-ethyl-1,3-dioxol-2-one] | 8.92 | – | 0.22 | – | – | – | –
C#Cc1c(F)ccc2cccc(-c3nc4c5c(nc(OC[C@@]67CCCN6C[C@H](F)C7)nc5c3F)N3C[C@H]5CC[C@@H]([C@H]3CCC4)N5C(=O)OC(C)OC(=O)CCC)c12 (stereo partly drawn) [Example 25, 1-(butyryloxy)ethyl (6aR,7S,10R)-2-(8-ethynyl-7-fluoronaphthalen-1-yl)-1-fluoro-13-(((2R,7aS)-2-fluorotetrahydro-1H-pyrrolizin-7a(5H)-yl)methoxy)-5,6,6a,7,8,9,10,11-octahydro-4H-3,11a,12,14,15-pentaaza-7,10-methanocyclohepta[4,5]cycloocta[1,2,3-de]naphthalene-15-carboxylate] | – | – | – | 1 | 0.037 | – | –
C#Cc1c(F)ccc2cc(N)cc(-c3nc4c5c(nc(OC[C@@]67CCCN6C[C@H](F)C7)nc5c3F)N3C[C@H]5CC[C@@H]([C@H]3CCC4)N5Cc3oc(=O)oc3CCC)c12 [Example 35, 4-(((6aR,7S,10R)-2-(3-amino-8-ethynyl-7-fluoronaphthalen-1-yl)-1-fluoro-13-(((2R,7aS)-2-fluorotetrahydro-1H-pyrrolizin-7a(5H)-yl)methoxy)-5,6,6a,7,8,9,10,11-octahydro-4H-3,11a,12,14,15-pentaaza-7,10-methanocyclohepta[4,5]cycloocta[1,2,3-de]naphthalen-15-yl)methyl)-5-propyl-1,3-dioxol-2-one] | 9.34 | – | – | – | – | 5 | 0.27
C#Cc1c(F)ccc2cc(N)cc(-c3nc4c5c(nc(OC[C@@]67CCCN6C[C@H](F)C7)nc5c3F)N3C[C@H]5CC[C@@H]([C@H]3CCC4)N5Cc3oc(=O)oc3CCCCCC)c12 [Example 36, 4-(((6aR,7S,10R)-2-(3-amino-8-ethynyl-7-fluoronaphthalen-1-yl)-1-fluoro-13-(((2R,7aS)-2-fluorotetrahydro-1H-pyrrolizin-7a(5H)-yl)methoxy)-5,6,6a,7,8,9,10,11-octahydro-4H-3,11a,12,14,15-pentaaza-7,10-methanocyclohepta[4,5]cycloocta[1,2,3-de]naphthalen-15-yl)methyl)-5-hexyl-1,3-dioxol-2-one] | 9.31 | 1.9 | 0.052 | – | – | – | –
C#Cc1c(F)ccc2cc(O)cc(-c3nc4c5c(nc(OC[C@@]67CCCN6C[C@H](F)C7)nc5c3F)N3C[C@H]5CC[C@@H]([C@@H]3[C@H]3CCC[C@@H]43)N5Cc3oc(=O)oc3C)c12 [Example 42, 4-(((3aS,3bS,4S,7R,14bR)-13-(8-ethynyl-7-fluoro-3-hydroxynaphthalen-1-yl)-12-fluoro-10-(((2R,7aS)-2-fluorotetrahydro-1H-pyrrolizin-7a(5H)-yl)methoxy)-2,3,3a,3b,4,5,6,7,8,14b-decahydro-1H-8a,9,11,14,15-pentaaza-4,7-methanocyclopenta[d]naphtho[1,8-ab]heptalen-15-yl)methyl)-5-methyl-1,3-dioxol-2-one] | 8.77 | 0.3 | 0.2 | – | – | – | –
C#Cc1c(F)ccc2cc(N)cc(-c3nc4c5c(nc(OC[C@@]67CCCN6C[C@H](F)C7)nc5c3F)N3C[C@H]5CC[C@@H]([C@H]3CCC4)N5Cc3oc(=O)oc3C(C)C)c12 [Example 80, 4-(((6aR,7S,10R)-2-(3-amino-8-ethynyl-7-fluoronaphthalen-1-yl)-1-fluoro-13-(((2R,7aS)-2-fluorotetrahydro-1H-pyrrolizin-7a(5H)-yl)methoxy)-5,6,6a,7,8,9,10,11-octahydro-4H-3,11a,12,14,15-pentaaza-7,10-methanocyclohepta[4,5]cycloocta[1,2,3-de]naphthalen-15-yl)methyl)-5-isopropyl-1,3-dioxol-2-one] | 9.43 | 2.1 | 0.057 | – | – | – | –
C#Cc1c(F)ccc2cc(N)cc(-c3nc4c5c(nc(OC[C@@]67CCCN6C[C@H](F)C7)nc5c3F)N3C[C@H]5CC[C@@H]([C@H]3CCC4)N5Cc3oc(=O)oc3C(C)(C)C)c12 [Example 81, 4-(((6aR,7S,10R)-2-(3-amino-8-ethynyl-7-fluoronaphthalen-1-yl)-1-fluoro-13-(((2R,7aS)-2-fluorotetrahydro-1H-pyrrolizin-7a(5H)-yl)methoxy)-5,6,6a,7,8,9,10,11-octahydro-4H-3,11a,12,14,15-pentaaza-7,10-methanocyclohepta[4,5]cycloocta[1,2,3-de]naphthalen-15-yl)methyl)-5-(tert-butyl)-1,3-dioxol-2-one] | 9.20 | 0.4 | 0.011 | – | – | – | –

From patent US12448400B2, “KRAS G12D modulating compounds” (priority 2023, dated 2025)
